Earlier results as cited in patent US20210339043A1, “NEURAL STIMULATION VIA VISUAL STIMULATION” (Cognito Therapeutics, Inc., priority 2016, published 2021).

Conditions: 70 kg adult; for estimated absorbed radiation dose, Adrenals: organ: Adrenals; for estimated absorbed radiation dose, Brain: organ: Brain; for estimated absorbed radiation dose, Breasts: organ: Breasts; for estimated absorbed radiation dose, Heart Wall: organ: Heart Wall; for estimated absorbed radiation dose, Kidneys: organ: Kidneys; for estimated absorbed radiation dose, Lungs: organ: Lungs; for estimated absorbed radiation dose, Muscle: organ: Muscle; for estimated absorbed radiation dose, Ovaries: organ: Ovaries; for estimated absorbed radiation dose, Pancreas: organ: Pancreas; for estimated absorbed radiation dose, Red marrow: organ: Red marrow; for estimated absorbed radiation dose, Skin: organ: Skin; for estimated absorbed radiation dose, Spleen: organ: Spleen; for estimated absorbed radiation dose, Testes: organ: Testes; for estimated absorbed radiation dose, Thymus: organ: Thymus; for estimated absorbed radiation dose, Thyroid: organ: Thyroid; for estimated absorbed radiation dose, Urinary bladder wall: organ: Urinary bladder wall; for estimated absorbed radiation dose, Uterus: organ: Uterus

estimated absorbed radiation dose, Adrenals [rad/mCi]	estimated absorbed radiation dose, Brain [rad/mCi]	estimated absorbed radiation dose, Breasts [rad/mCi]	estimated absorbed radiation dose, Heart Wall [rad/mCi]	estimated absorbed radiation dose, Kidneys [rad/mCi]	estimated absorbed radiation dose, Lungs [rad/mCi]	estimated absorbed radiation dose, Muscle [rad/mCi]	estimated absorbed radiation dose, Ovaries [rad/mCi]	estimated absorbed radiation dose, Pancreas [rad/mCi]	estimated absorbed radiation dose, Red marrow [rad/mCi]	estimated absorbed radiation dose, Skin [rad/mCi]	estimated absorbed radiation dose, Spleen [rad/mCi]	estimated absorbed radiation dose, Testes [rad/mCi]	estimated absorbed radiation dose, Thymus [rad/mCi]	estimated absorbed radiation dose, Thyroid [rad/mCi]	estimated absorbed radiation dose, Urinary bladder wall [rad/mCi]	estimated absorbed radiation dose, Uterus [rad/mCi]	Compound	further results
0.05	0.037	0.023	0.048	0.048	0.032	0.032	0.065	0.053	0.053	0.022	0.033	0.025	0.027	0.025	0.1	0.058	CNc1ccc(/C=C/c2ccc(OCCOCCOCC[18F])nc2)cc1 [18F-AV-45]	
0.048	0.07	0.034	0.22	0.074	0.064	0.039	0.053	0.096	0.047	0.03	0.14	0.041	0.044	0.039	0.32	0.062	OC[C@H]1O[C@@H](O)[C@H]([18F])[C@@H](O)[C@@H]1O [FDG]	critical organ (radiation dose): urinary bladder wall, followed by heart, spleen and pancreas; estimated absorbed radiation dose, Gallbladder Wall (organ: Gallbladder Wall): 0.049 rad/mCi; estimated absorbed radiation dose, Liver (organ: Liver): 0.058 rad/mCi; estimated absorbed radiation dose, Lower Large Intestine Wall (organ: Lower Large Intestine Wall): 0.051 rad/mCi; estimated absorbed radiation dose, Small Intestine (organ: Small Intestine): 0.047 rad/mCi; estimated absorbed radiation dose, Upper Large Intestine Wall (organ: Upper Large Intestine Wall): 0.046 rad/mCi
